Experimental findings from ChEMBL document CHEMBL1201862, “PubChem BioAssay data set” (2004) are described below.

Where “and” joins values, the source holds several entries; their conditions need not be identical. Equal entries are not always repeated.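 Values below derive from 48-hour exposures of cells grown in 96-well plates, with endpoints linearly interpolated between the two concentrations bracketing the appropriate inhibition level. GI50: concentration for 50% inhibition of growth.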 Calls of active or inactive are those of the source. No stated cut-off is given here; in the data, active = GI50 up to about 1.1 µM and inactive = higher. A value given as a limit tells only on which side of the number the result lay.

Some test systems named below: SR; HOP-62; MCF7; SF-539; SK-MEL-2; NCI-H23; COLO 205; MDA-N; KM12; CAKI-1; UO-31; HCT-116; DU-145; NCI-H226; OVCAR-4; HL-60; SF-295; SF-268; LOX IMVI; RXF 393.
Holding throughout (assay): NCI-60 cell line screen, 48 h

Turning to `CN(C)CCNCCN`, the GI50 with SR, in the assay on HOP-62, in the assay on MCF7, in the assay with SF-539, with SK-MEL-2 and with NCI-H23 was > 100 µM (inactive) in each case. Further, the GI50 in the assay with COLO 205, in the assay on MDA-N, in the assay on KM12, in the assay with CAKI-1, in the assay on UO-31 and in the assay on HCT-116 was > 100 µM (inactive) in each case. For the same compound, the GI50 with DU-145, in the assay with NCI-H226, with OVCAR-4, in the assay with HL-60, with SF-295 and in the assay on SF-268 was > 100 µM (inactive) in each case. Further, the GI50 with LOX IMVI was > 100 µM (inactive).
On to `O=c1[nH]nc(Cc2ccccc2)n1O`, for which the GI50 in the assay on SR is > 100 µM (inactive); in the assay with HOP-62, > 100 µM (inactive); in the assay with MCF7, > 100 µM (inactive); in the assay on SF-539 it was > 100 µM (inactive); in the assay with SK-MEL-2, > 10 µM (inactive); in the assay on NCI-H23, > 100 µM (inactive). The GI50 with COLO 205, in the assay with MDA-N, with KM12, in the assay with CAKI-1, in the assay with UO-31 and with HCT-116 was > 100 µM (inactive) throughout. For the same compound, the GI50 in the assay on DU-145, with NCI-H226, in the assay on OVCAR-4, with HL-60, with SF-295 and in the assay with SF-268 was > 100 µM (inactive) each time. In the assay with LOX IMVI, the GI50 is > 100 µM (inactive).
Take `C=CCOc1ccc(C(=N/NC(=O)c2ccccc2)/N=N/c2ccc(C)cc2)cc1OC`: the GI50 is 6.17 µM (inactive) with SR; 37.8 µM (inactive) in the assay on HOP-62; 35.1 µM (inactive) in the assay with MCF7; 23.2 µM (inactive) in the assay with SK-MEL-2; 20.2 µM (inactive) in the assay on NCI-H23; 16.5 µM (inactive) in the assay with COLO 205. In addition, the GI50 was 20.7 µM (inactive) with MDA-N; 18.1 µM (inactive) in the assay on KM12; 40.8 µM (inactive) in the assay with CAKI-1; 24.8 µM (inactive) in the assay with UO-31; 19 µM (inactive) with HCT-116; 37.2 µM (inactive) with DU-145. Moreover, the GI50 was 20.6 µM (inactive) with NCI-H226; 37.9 µM (inactive) in the assay with OVCAR-4; 4.83 µM (inactive) in the assay on HL-60; 32 µM (inactive) in the assay on SF-295; 52.7 µM (inactive) in the assay with SF-268; 14.7 µM (inactive) with LOX IMVI.
For `COc1cc2c(cc1O)C1Cc3ccc(OC)c(O)c3C(C2)N1C` (stereo not drawn), the GI50 in the assay on HOP-62 was 92.9 µM (inactive); in the assay on MCF7 it was > 100 µM (inactive); in the assay with SF-539 it was > 100 µM (inactive); in the assay on RXF 393 it was > 100 µM (inactive); in the assay with SK-MEL-2 it was > 100 µM (inactive); in the assay on NCI-H23, > 100 µM (inactive). Further, the GI50 in the assay on COLO 205, with MDA-N, in the assay with KM12, in the assay with CAKI-1, in the assay with UO-31 and in the assay with HCT-116 was > 100 µM (inactive) each time. The GI50 in the assay with DU-145, with NCI-H226, with OVCAR-4, in the assay with HL-60, with SF-295 and with SF-268 was > 100 µM (inactive) throughout. The GI50 in the assay on LOX IMVI is > 100 µM (inactive).
As for `O=C1/C(=C/c2ccco2)NC(=S)N1CN1CCCCC1`, the GI50 is 34.5 µM (inactive) in the assay on SR; > 100 µM (inactive) with HOP-62; 36.3 µM (inactive) in the assay on MCF7; > 100 µM (inactive) in the assay on SK-MEL-2; > 100 µM (inactive) with NCI-H23; 51.4 µM (inactive) with COLO 205. Also, the GI50 with MDA-N is > 100 µM (inactive); in the assay with KM12, > 100 µM (inactive); with UO-31, 26.9 µM (inactive); with HCT-116, 57.4 µM (inactive); in the assay on DU-145, > 100 µM (inactive); with NCI-H226 it was 54.1 µM (inactive). Besides, the GI50 was 13.3 µM (inactive) with OVCAR-4, > 100 µM (inactive) in the assay on SF-295, 68.4 µM (inactive) with SF-268 and 33.7 µM (inactive) with LOX IMVI.
With `Cn1c(=O)c2c(ncn2Cc2ccc(O)c([N+](=O)[O-])c2)n(C)c1=O`, the GI50 in the assay with SR, with HOP-62, in the assay with MCF7, with SF-539, in the assay on SK-MEL-2 and in the assay with NCI-H23 was > 100 µM (inactive) each time. Further, the GI50 in the assay with COLO 205, in the assay on MDA-N, in the assay with KM12, in the assay with CAKI-1, with UO-31 and with HCT-116 was > 100 µM (inactive) in each case. The GI50 in the assay on DU-145, in the assay with NCI-H226, in the assay with OVCAR-4, in the assay on HL-60, with SF-295 and in the assay on SF-268 was > 100 µM (inactive) each time. For the same compound, in the assay on LOX IMVI, the GI50 was > 100 µM (inactive).
For `O=CNCCCN1CCN(CCCNC=O)CC1`, the GI50 in the assay with SR, in the assay on HOP-62, with MCF7, in the assay with SF-539, in the assay with SK-MEL-2 and in the assay on NCI-H23 was > 100 µM (inactive) each time. For the same compound, the GI50 in the assay on COLO 205, in the assay on MDA-N, with KM12, in the assay with CAKI-1, with UO-31 and with HCT-116 was > 100 µM (inactive) each time. Also, the GI50 with DU-145 is > 100 µM (inactive); with NCI-H226, > 100 µM (inactive); with OVCAR-4, > 100 µM (inactive); with HL-60 it was > 100 µM (inactive); in the assay with SF-295, > 100 µM (inactive); in the assay on SF-268, 4.88 µM (inactive). For the same compound, in the assay with LOX IMVI, the GI50 is > 100 µM (inactive).
For the compound `CN(/N=C/c1ccccc1C(=O)O)C1=NCCCCN1`, the GI50 with SR, with HOP-62, in the assay with MCF7, with SF-539, with SK-MEL-2 and in the assay on NCI-H23 was > 100 µM (inactive) throughout. In addition, the GI50 in the assay on COLO 205, in the assay with MDA-N, in the assay with KM12, with CAKI-1, in the assay on UO-31 and in the assay on HCT-116 was > 100 µM (inactive) throughout. For the same compound, the GI50 in the assay on DU-145, in the assay with NCI-H226, with OVCAR-4, with HL-60, in the assay with SF-295 and in the assay on SF-268 was > 100 µM (inactive) each time. The GI50 in the assay with LOX IMVI is > 100 µM (inactive).
`CCOc1ccc2nc3cc(/N=N/c4ccc(N)nc4N)ccc3c(N)c2c1`: the GI50 was 3.75 µM (inactive) in the assay on HOP-62; 3.15 µM (inactive) with MCF7; 2.05 µM (inactive) with SF-539; 2.19 µM (inactive) with RXF 393; 2.1 µM (inactive) in the assay with SK-MEL-2; 3.94 µM (inactive) with NCI-H23. In addition, the GI50 with COLO 205 is 1.86 µM (inactive); in the assay with MDA-N, 2.24 µM (inactive); in the assay with KM12, 3.37 µM (inactive); in the assay on CAKI-1 it was 36.4 µM (inactive); in the assay with UO-31, 28.4 µM (inactive); in the assay on HCT-116 it was 1.66 µM (inactive). The GI50 with DU-145 is 6.65 µM (inactive); with NCI-H226 it was 21.7 µM (inactive); in the assay with OVCAR-4, 6.92 µM (inactive); with HL-60 it was 1.95 µM (inactive); in the assay with SF-295, 22.6 µM (inactive); in the assay with SF-268, 1.64 µM (inactive). Besides, the GI50 with LOX IMVI is 0.419 µM (active).
In the case of `COC(=O)[C@@H]1CC(C(C[N+](=O)[O-])c2ccc(O[Si](C)(C)C(C)(C)C)cc2)C(=O)N1C(=O)OC(C)(C)C` (stereo partly drawn), the GI50 was 21 µM (inactive) and 33.8 µM (inactive) with SR; > 100 µM (inactive) with HOP-62; 45.5 µM (inactive) and 29.6 µM (inactive) in the assay on MCF7; > 100 µM (inactive) in the assay with SF-539; 29.9 µM (inactive) and 20.6 µM (inactive) with RXF 393; > 100 µM (inactive) with SK-MEL-2. The GI50 with MDA-N was > 100 µM (inactive); in the assay with KM12 it was > 100 µM (inactive) and 76.6 µM (inactive); with CAKI-1 it was > 100 µM (inactive) and 90.4 µM (inactive); in the assay on UO-31, 32.7 µM (inactive) and 60.7 µM (inactive); in the assay on HCT-116, 63.1 µM (inactive); in the assay with DU-145 it was > 100 µM (inactive). Besides, the GI50 with OVCAR-4 is 53.6 µM (inactive) and 29.6 µM (inactive); in the assay on SF-295, > 100 µM (inactive) and 59.2 µM (inactive); with SF-268 it was > 100 µM (inactive) and 95.3 µM (inactive); in the assay on LOX IMVI, > 100 µM (inactive).
Regarding `COc1ccc(C(=O)/C=C/c2ccc(OCCSCCCCCCCCCCSCCOc3ccc(/C=C/C(=O)c4ccc(OC)c(OC)c4)cc3)cc2)cc1OC`, the GI50 in the assay on SR, in the assay with HOP-62, in the assay on MCF7, with SF-539, in the assay with NCI-H23 and with COLO 205 was > 100 µM (inactive) throughout. In addition, the GI50 in the assay on MDA-N, in the assay on KM12, in the assay with CAKI-1, in the assay on HCT-116, in the assay with DU-145 and in the assay with HL-60 was > 100 µM (inactive) throughout. Besides, the GI50 in the assay with SF-295, in the assay with SF-268 and in the assay on LOX IMVI was > 100 µM (inactive) in each case.
